Test system: HCV replicon-containing huh-7 cells (replicon 1b)
Test: HCV Replicon Assay (luciferase readout)
Type: cell-based
Details: Hepatitis C virus; HCV replicon 1b in huh-7 cells, 48 h incubation, 1% DMSO, luciferase signal; read-out: EC50 (EC 50 on replicon 1b)
Procedure: Compounds of formuala (I) are tested for the ability to inhibit viral replication of the Hepatitis C viruses by the following in vitro assays.
DMEM (Life Technologies #41965-039) was supplemented with 10% FBS, 2 mM L-glutamine (Life Technologies #25030-024), penicillin (100 units/ml)/streptomycin (100 micrograms/ml) (Life Technologies #15140-114), 1× non-essential amino acids (Life Technologies #11140-035).
Complete media was prepared by mixing FBS, DMEM media with Geneticin (G418). The compete media was preincubated at 37° C. in a CO2 incubator. Then, HCV replicon-containing huh-7 cells (V. Lohmann et. al. Science, 285, (1999)110-113) was taken out from 37° C. incubator. The residual medium was absorbed, and the cells were washed with PBS. After washing fluid was removed, 1 ml 0.25% trypsin/0.02% EDTA solution. The cells were washed by the above trypsin/EDTA solution to make sure that each cell was cleaned. After the trypsin/EDTA solution was absorbed, the mixture was incubated at 37° C. in a CO2 incubator for 3-5 minutes. Morphological changes were observed by inverted microscope, till the cells were detached from the wall of container completely.
3 ml of complete media was added to make the cells to suspend. The cells are counted with hematometer. Appropriate volumes of the complete media was added to adjust the cell density to 100,000/ml. Cells were plated with 100 μl of suspension at 10,000/well of 96 well plate. Plates were placed into 37° C. 5% CO2 incubator for 24 h.
Preparation of Drug Solution:
Drugs were diluted under aseptic conditions.
Stock solutions may be prepared before the assay, which means that the test compounds are dissolved in 100% DMSO to afford a final concentration of 2 mM. Before the 96 well culture was completed, the stock solution was diluted with culter media to 100 fold of the final concentration (100× solution).
96-well plates were taken out from 37° C. CO2 incubator and morphological changes were observed by inverted microscope. In a ventilator, 1 μl of 100× drug solution was added to wells of 96 well plate until the final concentration of DMSO in the mixture is 1%. The plates were incubated at 37° C. in a CO2 environment for 48 h. 30 μl of Stead-G1® Luciferase Assay System (bought from Promega) was added to each well of 96 well plates and each plate is shaken in a plate shaker for 5 minutes to ensure cells cleavaged completely. The fluorescence signal was quantitated in a Perkin-Elmer plate reader (Envision) and integral time was setted to be 2 second. The following data were achieved after recording and analyzing the data.

Row | SMILES | EC50 [nM]
1 | CCC1C[C@]1(NC(=O)[C@@H]1C[C@@H]2CN1C(=O)[C@H](C1CCCCC1)NC(=O)[C@@H](NC(=O)OC(C)(C)C)COCCCc1cc3c(nccc3cc1OC)O2)C(=O)NS(=O)(=O)C1CC1 (stereo in doubt) [Compound IIb-6, tert-butyl N-[(3R,5S,8S,11S)-8-cyclohexyl-5-{[(1R,2S)-1-[(cyclopropanesulfonyl)carbamoyl]-2-ethylcyclopropyl]carbamoyl}-18-methoxy-7,10-dioxo-2,13-dioxa-6,9,23-triazatetracyclo[15.6.2.1^3,6.0^20,24]hexacosa-1(23),17(25),18,20(24),21-pentaen-11-yl]carbamate] | 50 to 500
2 | C=C[C@@H]1C[C@]1(NC(=O)[C@@H]1C[C@@H]2CN1C(=O)[C@H](C(C)(C)C)NC(=O)[C@@H](N)COC/C=C/c1cccc3c1CN(C3)C(=O)O2)C(=O)NS(=O)(=O)C1CC1 [Compound IIa-2, (1R,12E,17S,20S,23S)-17-amino-20-tert-butyl-N-[(1R,2S)-1-[(cyclopropanesulfonyl)carbamoyl]-2-ethenylcyclopropyl]-3,18,21-trioxo-2,15-dioxa-4,19,22-triazatetracyclo[20.2.1.1^4,7.0^6,11]hexacosa-6,8,10,12-tetraene-23-carboxamide] | 10 to 50
3 | C=C[C@@H]1C[C@]1(NC(=O)[C@@H]1C[C@@H]2CN1C(=O)[C@H](C(C)(C)C)NC(=O)[C@H](NC(=O)OC(C)(C)C)COC/C=C/c1cccc3c1CN(C3)C(=O)O2)C(=O)NS(=O)(=O)C1CC1 [Compound IIa-3, tert-butyl N-[(1R,12E,17R,20S,23S)-20-tert-butyl-23-{[(1R,2S)-1-[(cyclopropanesulfonyl)carbamoyl]-2-ethenylcyclopropyl]carbamoyl}-3,18,21-trioxo-2,15-dioxa-4,19,22-triazatetracyclo[20.2.1.1^4,7.0^6,11]hexacosa-6,8,10,12-tetraen-17-yl]carbamate] | 50 to 500
4 | C=C[C@@H]1C[C@]1(NC(=O)[C@@H]1C[C@@H]2CN1C(=O)[C@H](C(C)(C)C)NC(=O)[C@H](N)COC/C=C/c1cccc3c1CN(C3)C(=O)O2)C(=O)NS(=O)(=O)C1CC1 [Compound IIa-4, (1R,12E,17R,20S,23S)-17-amino-20-tert-butyl-N-[(1R,2S)-1-[(cyclopropanesulfonyl)carbamoyl]-2-ethenylcyclopropyl]-3,18,21-trioxo-2,15-dioxa-4,19,22-triazatetracyclo[20.2.1.1^4,7.0^6,11]hexacosa-6,8,10,12-tetraene-23-carboxamide] | 500 to 20000
5 | C=C[C@@H]1C[C@]1(NC(=O)[C@@H]1C[C@@H]2CN1C(=O)[C@H](C(C)(C)C)NC(=O)[C@@H](NC(=O)c1cnccn1)COC/C=C/c1cccc3c1CN(C3)C(=O)O2)C(=O)NS(=O)(=O)C1CC1 [Compound IIa-5, (1R,12E,17S,20S,23S)-20-tert-butyl-23-N-[(1R,2S)-1-[(cyclopropanesulfonyl)carbamoyl]-2-ethenylcyclopropyl]-3,18,21-trioxo-17-C-pyrazine-2-2,15-dioxa-4,19,22-triazatetracyclo[20.2.1.1^4,7.0^6,11]hexacosa-6,8,10,12-tetraene-17,23-diamido] | 50 to 500
6 | C=C[C@@H]1C[C@]1(NC(=O)[C@@H]1C[C@@H]2CN1C(=O)[C@H](C(C)(C)C)NC(=O)[C@H](NC(=O)c1cnccn1)COC/C=C/c1cccc3c1CN(C3)C(=O)O2)C(=O)NS(=O)(=O)C1CC1 [Compound IIa-6, (1R,12E,17R,20S,23S)-20-tert-butyl-23-N-[(1R,2S)-1-[(cyclopropanesulfonyl)carbamoyl]-2-ethenylcyclopropyl]-3,18,21-trioxo-17-C-pyrazine-2-2,15-dioxa-4,19,22-triazatetracyclo[20.2.1.1^4,7.0^6,11]hexacosa-6,8,10,12-tetraene-17,23-diamido] | 50 to 500
7 | C=C[C@@H]1C[C@]1(NC(=O)[C@@H]1C[C@@H]2CN1C(=O)[C@H](C(C)(C)C)NC(=O)[C@@H](NC(C)=O)COC/C=C/c1cccc3c1CN(C3)C(=O)O2)C(=O)NS(=O)(=O)C1CC1 [Compound IIa-7, (1R,12E,17S,20S,23S)-20-tert-butyl-N-[(1R,2S)-1-[(cyclopropanesulfonyl)carbamoyl]-2-ethenylcyclopropyl]-17-acetamido-3,18,21-trioxo-2,15-dioxa-4,19,22-triazatetracyclo[20.2.1.1^4,7.0^6,11]hexacosa-6,8,10,12-tetraene-23-carboxamide] | 50 to 500
8 | C=C[C@@H]1C[C@]1(NC(=O)[C@@H]1C[C@@H]2CN1C(=O)[C@H](C(C)(C)C)NC(=O)[C@@H](NS(C)(=O)=O)COC/C=C/c1cccc3c1CN(C3)C(=O)O2)C(=O)NS(=O)(=O)C1CC1 [Compound IIa-8, (1R,12E,17S,20S,23S)-20-tert-butyl-N-[(1R,2S)-1-[(cyclopropanesulfonyl)carbamoyl]-2-ethenylcyclopropyl]-17-methanesulfonamido-3,18,21-trioxo-2,15-dioxa-4,19,22-triazatetracyclo[20.2.1.1^4,7.0^6,11]hexacosa-6,8,10,12-tetraene-23-carboxamide] | 10 to 50
9 | C=C[C@@H]1C[C@]1(NC(=O)[C@@H]1C[C@@H]2CN1C(=O)[C@H](C(C)(C)C)NC(=O)[C@@H](NC(=O)OCC)COC/C=C/c1cccc3c1CN(C3)C(=O)O2)C(=O)NS(=O)(=O)C1CC1 [Compound IIa-9, ethyl N-[(1R,12E,17S,20S,23S)-20-tert-butyl-23-{[(1R,2S)-1-[(cyclopropanesulfonyl)carbamoyl]-2-ethenylcyclopropyl]carbamoyl}-3,18,21-trioxo-2,15-dioxa-4,19,22-triazatetracyclo[20.2.1.1^4,7.0^6,11]hexacosa-6,8,10,12-tetraen-17-yl]carbamate] | 10 to 50
10 | C=C[C@@H]1C[C@]1(NC(=O)[C@@H]1C[C@@H]2CN1C(=O)[C@H](C(C)(C)C)NC(=O)[C@@H](NC(=O)OCc1ccccc1)COC/C=C/c1cccc3c1CN(C3)C(=O)O2)C(=O)NS(=O)(=O)C1CC1 [Compound IIa-10, benzyl N-[(1R,12E,17S,20S,23S)-20-tert-butyl-23-{[(1R,2S)-1-[(cyclopropanesulfonyl)carbamoyl]-2-ethenylcyclopropyl]carbamoyl}-3,18,21-trioxo-2,15-dioxa-4,19,22-triazatetracyclo[20.2.1.1^4,7.0^6,11]hexacosa-6,8,10,12-tetraen-17-yl]carbamate] | < 10
11 | C=C[C@@H]1C[C@]1(NC(=O)[C@@H]1C[C@@H]2CN1C(=O)[C@H](C(C)(C)C)NC(=O)[C@@H](NC(=O)OC1CCCC1)COC/C=C/c1cccc3c1CN(C3)C(=O)O2)C(=O)NS(=O)(=O)C1CC1 [Compound IIa-11, cyclopentyl N-[(1R,12E,17S,20S,23S)-20-tert-butyl-23-{[(1R,2S)-1-[(cyclopropanesulfonyl)carbamoyl]-2-ethenylcyclopropyl]carbamoyl}-3,18,21-trioxo-2,15-dioxa-4,19,22-triazatetracyclo[20.2.1.1^4,7.0^6,11]hexacosa-6,8,10,12-tetraen-17-yl]carbamate] | < 10

Source: US9321809B2, “Macrocyclic compounds for suppressing replication of hepatitis C virus” (Ginkgo Pharma Co., Ltd., priority 2012, dated 2016)
